The numbers were not newly measured in patent US8741809B2, “Liquid pyraclostrobin-containing crop protection formulations” (BASF SE, priority 2008, dated 2014), which cites them from elsewhere.

The structures appear in SMILES notation.

The conditions of the series: at 20° C.
For the molecule `CC(=O)c1ccccc1` [acetophenone], the “solubility of the respective solvent in water” value (from here on “solubility”) is “(5.5 g/l)”.
`OCc1ccccc1` [benzyl alcohol]: the “solubility” value was “(39 g/l)”.
Turning to `O=C1CCCCC1` [cyclohexanone], the “solubility” value is “(24 g/l)”.
